From ChEMBL document CHEMBL4270512, “Harnessing pyrrolidine iminosugars into dimeric structures for the rapid discovery of divalent glycosidase inhibitors” (Eur J Med Chem, 2018)
Activity calls are given as the source filed them. No cut-off for these calls is given here.

Experiments:
[1] = Inhibition of bovine kidney alpha-fucosidase using p-nitrophenyl glycopyranoside as substrate preincubated for 5 mins followed by substrate addition and measured after 20 mins by visible absorption spectroscopic analysis; set-up: species or system Bos taurus
[2] = Uncompetitive inhibition of bovine kidney alpha-fucosidase using p-nitrophenyl glycopyranoside as substrate preincubated for 5 mins followed by substrate addition and measured after 20 mins by Lineweaver-Burk plot analysis; set-up: species or system Bos taurus
[3] = Inhibition of human alpha-fucosidase using p-nitrophenyl glycopyranoside as substrate preincubated for 5 mins followed by substrate addition and measured after 20 mins by visible absorption spectroscopic analysis
Canavalia ensiformis = assay: Inhibition of jack beans beta-N-acetylglucosaminidase at 0.1 mM using p-nitrophenyl glycopyranoside as substrate preincubated for 5 mins followed by substrate addition and measured after 20 mins by visible absorption spectroscopic analysis
Cornu aspersum = assay: Inhibition of snail beta-mannosidase at 0.1 mM using p-nitrophenyl glycopyranoside as substrate preincubated for 5 mins followed by substrate addition and measured after 20 mins by visible absorption spectroscopic analysis
[4] = Competitive inhibition of bovine kidney alpha-fucosidase using p-nitrophenyl glycopyranoside as substrate preincubated for 5 mins followed by substrate addition and measured after 20 mins by Lineweaver-Burk plot analysis; set-up: species or system Bos taurus
[5] = Uncompetitive inhibition of human alpha-fucosidase using p-nitrophenyl glycopyranoside as substrate preincubated for 5 mins followed by substrate addition and measured after 20 mins by Lineweaver-Burk plot analysis
[6] = Competitive inhibition of human alpha-fucosidase using p-nitrophenyl glycopyranoside as substrate preincubated for 5 mins followed by substrate addition and measured after 20 mins by Lineweaver-Burk plot analysis
Prunus dulcis = assay: Inhibition of almond beta-glucosidase at 0.1 mM using p-nitrophenyl glycopyranoside as substrate preincubated for 5 mins followed by substrate addition and measured after 20 mins by visible absorption spectroscopic analysis
Saccharomyces cerevisiae = assay: Inhibition of Saccharomyces cerevisiae alpha-glucosidase at 0.1 mM using p-nitrophenyl glycopyranoside as substrate preincubated for 5 mins followed by substrate addition and measured after 20 mins by visible absorption spectroscopic analysis
Oryza sativa = assay: Inhibition of rice beta-glucosidase at 0.1 mM using p-nitrophenyl glycopyranoside as substrate preincubated for 5 mins followed by substrate addition and measured after 20 mins by visible absorption spectroscopic analysis
Aspergillus niger = assay: Inhibition of Aspergillus niger amyloglucosidase at 0.1 mM using p-nitrophenyl glycopyranoside as substrate preincubated for 5 mins followed by substrate addition and measured after 20 mins by visible absorption spectroscopic analysis
[7] = molecular target: T1, Beta-galactosidase (Bos taurus) (UniProt Q58D55); assay: Inhibition of bovine liver beta-galactosidase at 0.1 mM using p-nitrophenyl glycopyranoside as substrate preincubated for 5 mins followed by substrate addition and measured after 20 mins by visible absorption spectroscopic analysis
T1 sequence (whole entry): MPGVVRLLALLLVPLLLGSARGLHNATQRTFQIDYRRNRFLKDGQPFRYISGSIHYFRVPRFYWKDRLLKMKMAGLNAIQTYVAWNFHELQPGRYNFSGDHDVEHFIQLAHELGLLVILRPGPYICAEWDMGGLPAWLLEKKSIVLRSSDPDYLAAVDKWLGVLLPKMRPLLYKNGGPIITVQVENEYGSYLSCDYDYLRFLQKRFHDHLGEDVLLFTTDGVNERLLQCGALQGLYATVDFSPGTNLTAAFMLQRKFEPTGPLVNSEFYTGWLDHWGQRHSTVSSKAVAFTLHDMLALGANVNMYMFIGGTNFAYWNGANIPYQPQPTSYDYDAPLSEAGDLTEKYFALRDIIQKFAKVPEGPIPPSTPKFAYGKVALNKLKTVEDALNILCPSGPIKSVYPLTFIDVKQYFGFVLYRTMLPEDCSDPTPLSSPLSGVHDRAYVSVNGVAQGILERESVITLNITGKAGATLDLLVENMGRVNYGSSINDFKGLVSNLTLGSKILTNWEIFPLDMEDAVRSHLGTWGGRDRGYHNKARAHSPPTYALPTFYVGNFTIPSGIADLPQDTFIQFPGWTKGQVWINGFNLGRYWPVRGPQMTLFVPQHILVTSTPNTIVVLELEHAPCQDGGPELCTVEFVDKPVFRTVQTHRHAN

[8] = molecular target: Alpha-galactosidase (Coffea arabica) (UniProt Q42656); assay: Inhibition of coffee beans alpha-galactosidase at 0.1 mM using p-nitrophenyl glycopyranoside as substrate preincubated for 5 mins followed by substrate addition and measured after 20 mins by visible absorption spectroscopic analysis
[9] = molecular target: T2, Alpha-mannosidase (Canavalia ensiformis) (UniProt C0HJB3); assay: Inhibition of jack beans alpha-mannosidase at 0.1 mM using p-nitrophenyl glycopyranoside as substrate preincubated for 5 mins followed by substrate addition and measured after 20 mins by visible absorption spectroscopic analysis
T2 sequence (whole entry): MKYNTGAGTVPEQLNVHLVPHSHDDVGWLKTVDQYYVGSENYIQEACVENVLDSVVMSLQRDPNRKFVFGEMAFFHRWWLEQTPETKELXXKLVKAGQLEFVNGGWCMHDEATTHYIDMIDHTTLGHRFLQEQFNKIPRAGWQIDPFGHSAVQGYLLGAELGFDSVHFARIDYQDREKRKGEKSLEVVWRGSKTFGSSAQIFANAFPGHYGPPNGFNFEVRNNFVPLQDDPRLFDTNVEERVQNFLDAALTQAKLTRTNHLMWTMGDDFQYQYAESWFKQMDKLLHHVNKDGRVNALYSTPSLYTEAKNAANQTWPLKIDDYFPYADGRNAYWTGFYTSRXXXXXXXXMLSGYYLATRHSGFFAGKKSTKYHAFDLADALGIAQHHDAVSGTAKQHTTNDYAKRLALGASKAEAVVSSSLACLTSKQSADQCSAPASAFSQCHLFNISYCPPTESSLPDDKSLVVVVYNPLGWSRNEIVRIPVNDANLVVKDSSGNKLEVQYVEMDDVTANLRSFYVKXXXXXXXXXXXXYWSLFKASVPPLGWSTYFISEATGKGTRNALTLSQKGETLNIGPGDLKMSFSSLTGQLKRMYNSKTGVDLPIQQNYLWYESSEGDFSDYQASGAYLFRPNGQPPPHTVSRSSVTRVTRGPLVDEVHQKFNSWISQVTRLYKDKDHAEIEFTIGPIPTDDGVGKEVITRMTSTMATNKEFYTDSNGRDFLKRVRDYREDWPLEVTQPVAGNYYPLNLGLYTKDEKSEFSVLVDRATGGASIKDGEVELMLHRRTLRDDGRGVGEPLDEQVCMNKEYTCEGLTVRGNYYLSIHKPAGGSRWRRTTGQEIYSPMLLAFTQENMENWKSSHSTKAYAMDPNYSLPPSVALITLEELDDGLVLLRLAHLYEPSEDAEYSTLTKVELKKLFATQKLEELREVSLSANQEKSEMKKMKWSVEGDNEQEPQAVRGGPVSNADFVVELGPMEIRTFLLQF

[10] = molecular target: T1, Beta-galactosidase (Bos taurus); assay: Inhibition of bovine liver beta-galactosidase at 200 uM using p-nitrophenyl glycopyranoside as substrate preincubated for 5 mins followed by substrate addition and measured after 20 mins by visible absorption spectroscopic analysis relative to control
Bos taurus [11] = organism: Bos taurus; assay: Inhibition of bovine kidney alpha-fucosidase at 0.120 uM using p-nitrophenyl glycopyranoside as substrate preincubated for 5 mins followed by substrate addition and measured after 20 mins by visible absorption spectroscopic analysis
Homo sapiens = organism: Homo sapiens; assay: Inhibition of human alpha-fucosidase at 0.1 mM using p-nitrophenyl glycopyranoside as substrate preincubated for 5 mins followed by substrate addition and measured after 20 mins by visible absorption spectroscopic analysis
Bos taurus [12] = organism: Bos taurus; assay: Inhibition of bovine kidney alpha-fucosidase at 0.1 mM using p-nitrophenyl glycopyranoside as substrate preincubated for 5 mins followed by substrate addition and measured after 20 mins by visible absorption spectroscopic analysis relative to control
Beta-galactosidase [13] = molecular target: T3, Beta-galactosidase (Bos taurus, UniProt Q58D55); assay: Competitive inhibition of bovine liver beta-galactosidase using p-nitrophenyl glycopyranoside as substrate preincubated for 5 mins followed by substrate addition and measured after 20 mins by Lineweaver-Burk plot analysis
T3 sequence (Q58D55 whole entry): T1 sequence (whole entry)

Beta-galactosidase [14] = molecular target: T3, Beta-galactosidase; assay: Inhibition of bovine liver beta-galactosidase using p-nitrophenyl glycopyranoside as substrate preincubated for 5 mins followed by substrate addition and measured after 20 mins by visible absorption spectroscopic analysis

Alpha-galactosidase (Coffea arabica), sequence (Q42656 16-378 limits assumed): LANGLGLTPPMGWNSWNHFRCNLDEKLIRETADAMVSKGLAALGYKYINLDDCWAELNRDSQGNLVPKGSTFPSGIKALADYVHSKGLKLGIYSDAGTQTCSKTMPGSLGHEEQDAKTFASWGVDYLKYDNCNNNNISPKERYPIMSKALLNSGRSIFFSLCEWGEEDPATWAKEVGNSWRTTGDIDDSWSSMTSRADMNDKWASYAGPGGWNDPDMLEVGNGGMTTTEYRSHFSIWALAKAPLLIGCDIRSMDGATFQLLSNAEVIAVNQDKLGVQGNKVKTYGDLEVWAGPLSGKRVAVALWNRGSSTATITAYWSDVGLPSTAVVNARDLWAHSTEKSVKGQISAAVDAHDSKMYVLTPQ

Row | Structure (SMILES) | IC50 [1] | Ki [2] | IC50 [3] | inhibition (Canavalia ensiformis) | inhibition (Cornu aspersum) | Ki [4] | Ki [5] | Ki [6] | inhibition (Prunus dulcis) | inhibition (Saccharomyces cerevisiae) | inhibition (Oryza sativa) | inhibition (Aspergillus niger) | inhibition [7] | inhibition [8] | inhibition [9] | other results
1 | C[C@@H]1N[C@@H](c2c[nH]nn2)[C@H](O)[C@@H]1O | 1000 nM | 4200 nM | 70000 nM | inactive | inactive | 300 nM | 34000 nM | 18000 nM | inactive | inactive | inactive | inactive | inactive | inactive | inactive | 
2 | C[C@@H]1N[C@@H](c2cn(CCCCCCn3cc([C@@H]4N[C@@H](C)[C@@H](O)[C@H]4O)nn3)nn2)[C@H](O)[C@@H]1O | 47 nM | 240 nM | 6800 nM | inactive | inactive | 15 nM | 7100 nM | 2500 nM | inactive | inactive | inactive | inactive | inactive | inactive | inactive | 
3 | C[C@@H]1N[C@@H](c2cn(-c3ccccc3)nn2)[C@H](O)[C@@H]1O | 19 nM | 66 nM | 4200 nM | inactive | inactive | 6.8 nM | 5500 nM | 860 nM | inactive | inactive | inactive | inactive | inactive | inactive | inactive | 
4 | Cc1oc([C@H]2NC[C@@H](O)[C@H]2O)cc1C(=O)NCc1cn(CCOCCOCCOCCn2cc(CNC(=O)c3cc([C@H]4NC[C@@H](O)[C@H]4O)oc3C)nn2)nn1 |  |  |  |  |  |  |  |  |  |  |  |  |  |  |  | inhibition [10]: < 50%
5 | C[C@@H]1N[C@@H](c2cn(-c3ccc(S(=O)(=O)c4ccc(N=[N+]=[N-])cc4)cc3)nn2)[C@H](O)[C@@H]1O | 1.1 nM | 1 nM | 540 nM | inactive | inactive | 0.2 nM | 580 nM | 73 nM | inactive | inactive | inactive | inactive | inactive | inactive | inactive | 
6 | C[C@@H]1N[C@@H](c2cn(CCCCCCCCCCCCn3cc([C@@H]4N[C@@H](C)[C@@H](O)[C@H]4O)nn3)nn2)[C@H](O)[C@@H]1O |  |  |  |  |  |  |  |  |  |  |  |  |  |  |  | inhibition (Bos taurus [11]): Active
7 | Cc1oc([C@H]2NC[C@@H](O)[C@H]2O)cc1C(=O)NCc1cn(CCOCCOCCOCCOCCOCCn2cc(CNC(=O)c3cc([C@H]4NC[C@@H](O)[C@H]4O)oc3C)nn2)nn1 |  |  |  |  |  |  |  |  |  |  |  |  |  |  |  | inhibition [10]: < 50%
8 | C[C@@H]1N[C@@H](c2cn(CCOCCOCc3cn(-c4cccc(S(=O)(=O)c5cccc(-n6cc(COCCOCCn7cc([C@@H]8N[C@@H](C)[C@@H](O)[C@H]8O)nn7)nn6)c5)c4)nn3)nn2)[C@H](O)[C@@H]1O |  |  |  |  |  |  |  |  |  |  |  |  |  |  |  | inhibition (Bos taurus [11]): Active
9 | C[C@@H]1N[C@@H](c2cn(CCOCCOCc3cn(CCCCCCCCCCCCn4cc(COCCOCCn5cc([C@@H]6N[C@@H](C)[C@@H](O)[C@H]6O)nn5)nn4)nn3)nn2)[C@H](O)[C@@H]1O |  |  |  |  |  |  |  |  |  |  |  |  |  |  |  | inhibition (Bos taurus [11]): Active
10 | C[C@@H]1N[C@@H](c2cn(CCOCCOCCOCCn3cc([C@@H]4N[C@@H](C)[C@@H](O)[C@H]4O)nn3)nn2)[C@H](O)[C@@H]1O | 120 nM | 132 nM | 26000 nM | inactive | inactive | 43 nM | 11100 nM | 4800 nM | inactive | inactive | inactive | inactive | inactive | inactive | inactive | 
11 | Cc1oc([C@H]2NC[C@@H](O)[C@H]2O)cc1C(=O)NCc1cn(CCCCCCCCCCCCn2cc(CNC(=O)c3cc([C@H]4NC[C@@H](O)[C@H]4O)oc3C)nn2)nn1 |  |  |  | inactive | inactive |  |  |  | inactive | inactive | inactive | inactive |  | inactive | inactive | inhibition (Homo sapiens): inactive; inhibition [10]: 88%; inhibition (Bos taurus [12]): 32%; Ki (Beta-galactosidase [13]): 5800 nM; IC50 (Beta-galactosidase [14]): 9600 nM
